Test results from US20120309699A1, “COMPOUNDS HAVING ANTI-INFLAMMATORY ACTIVITY” (Consejo Superior de Investigaciones Cientificas (CSIC), priority 2009, published 2012).
“Also recorded” adds a separate entry of the source.

Assays:
[1] = tested on: C57BL/6 mice; assay: DSS (sodium dextran sulfate) model for intestinal inflammation: colon length, weight, DAI, appearance, colonic architecture; type: in vivo; details: for Conservation of colon length (shortening of the colon): 1% DSS for 8 days, diet supplemented with 2.3 mg/day/kg (HED 10 mg); for DAI (Disease Activity Index): 8 days with DSS and 6 days recovery; for DAI (Disease Activity Index) / General appearance of the mice / Weight change / Attenuation of damage in colonic mucosa (colonic architecture): HED 10 mg; for Rectal hemorrhage / General appearance of the mice: after 1% DSS for 8 days; for Weight change: after administration of DSS (day 21); for Attenuation of damage in colonic mucosa (colonic architecture): hematoxylin-eosin, during treatment with DSS
Description: (§1) A model for intestinal inflammation based on the administration of DSS (sodium dextran sulfate) to C57BL/6 mice was used. At the present time there is no consensus about which overall is the best model for experimental colitis. The DSS model has been widely used because it has clinical, morphological and analytical characteristics which up to a point are similar to those specific to patients with ulcerative colitis or Crohn's disease.
(§2) The in vivo inflammation test was carried out using duplicates separated by a number of months. In each test each group of animals (n=8) was fed a standard diet supplemented with 2.3 mg/day/kg (animal weight) of each of the compounds, depending upon the group. This dose assumes the ingestion of 0.05 mg/day (50 μg/day) per mouse (having a mean weight of 22 grams). This dose extrapolated to a human being is equivalent to 10 mg in an adult weighing 70 kg; using the formula HED (human equivalent dose)=animal dose in mg/kg×(animal weight kg/human weight in kg)^0.33.
(§3) In each test the mice were fed for 3 weeks during which 1% DSS was included in their drink. The DSS was maintained for 8 days (and the same food as from the start). Then the DSS was withdrawn and the animals were allowed to recover for another 6 days (again with the same food).
Groups included in the investigation: control (standard food), control-DSS, DSS-resveratrol (RES), DSS-piceid (PIC), DSS-resveratrol-diglucoside (DIGLUC), DSS-piceid-butyrate (BUT), DSS-piceid-octanoate (OCT).
• Monitoring of weight, food and drink ingestion. The mice in all groups were individually monitored, with weight, quantity of food ingested and water drunk each day being monitored throughout the experimental test. • Blood and water in feces. The water content of feces, as an indication of diarrhea, was evaluated using the difference in weight following evaporation in a stove. Blood was measured using reactive strips based on the guaiacol-peroxidase reaction (HealthCare Diagnosis Inc.). The samples were diluted 1:50 in saline solution and applied to the reactive strips. After 60 sec the color was compared with the template provided by the manufacturer. The reaction was measured using a scale from 0 (negative result) to 4 (most intense color change). • Length of colon. After sacrifice the colon was obtained from each mouse, extended and measured. Samples of the colonic mucosa for various tests mentioned below were obtained by scraping. • Myeloperoxidase activity in colonic mucosa. This was evaluated by spectrophotometry at 460 nm using O-dianisidine reagent and hydrogen peroxide. The change in absorbance at 460 nm was monitored over 10 minutes in a V-630 spectrophotometer (Jasco, Tokyo, Japan). MPO activity was expressed as mU of activity/mg of fresh tissue, comparing the increase in absorbance with a standard straight line obtained using leukocyte myeloperoxidase (Sigma). • Prostaglandins in colonic mucosa. Levels of PGE2 were measured in colonic mucosa homogenates using an immunoenzyme method using a Cayman Chem. kit (USA). • “Antibody array”. The “antibody array” kit from RayBiotech (“RayBio Mouse Inflammation Antibody Array 1”) was used to determine cytokines in colonic tissue samples. The “RayBio Mouse inflammation antibody arrays” are a fast and accurate system for determining the expression profile of multiple cytokines (in this case 40) in a very sensitive way. The sensitivity is 100 times greater than that of the ELISA method. The measurement was made in duplicate following the manufacturer's instructions. Membranes were blocked with blocking buffer and then incubated with 300 μg of protein for 2 hours. Finally the membranes were incubated with a cocktail of antibodies conjugated with biotin and then radish peroxidase marked with streptavidin. The signal was detected by chemoluminescence. Images were captured using a CCD camera fitted to a Biorad Chemidoc XRS imaging station. Signal intensities (densitometry) were analyzed using ScanAlyze software. […]

[2] = tested on: bifidobacteria; assay: Microbiota counts in feces: bifidobacteria; type: in vivo, mice; details: after administration of DSS; HED 10 mg
Description: as §1, §2, §3
• Monitoring of weight, food and drink ingestion. The mice in all groups were individually monitored, with weight, quantity of food ingested and water drunk each day being monitored throughout the experimental test. • Blood and water in feces. The water content of feces, as an indication of diarrhea, was evaluated using the difference in weight following evaporation in a stove. Blood was measured using reactive strips based on the guaiacol-peroxidase reaction (HealthCare Diagnosis Inc.). […] The reaction was measured using a scale from 0 (negative result) to 4 (most intense color change). • Length of colon. After sacrifice the colon was obtained from each mouse, extended and measured. […] This was evaluated by spectrophotometry at 460 nm using O-dianisidine reagent and hydrogen peroxide. The change in absorbance at 460 nm was monitored over 10 minutes in a V-630 spectrophotometer (Jasco, Tokyo, Japan). MPO activity was expressed as mU of activity/mg of fresh tissue, comparing the increase in absorbance with a standard straight line obtained using leukocyte myeloperoxidase (Sigma). • Prostaglandins in colonic mucosa. Levels of PGE2 were measured in colonic mucosa homogenates using an immunoenzyme method using a Cayman Chem. kit (USA). • “Antibody array”. […] The signal was detected by chemoluminescence. […] Signal intensities (densitometry) were analyzed using ScanAlyze software. […] The changes in cytokine levels were expressed as mean±SD in arbitrary density units. […]

Row | SMILES | Conservation of colon length (shortening of the colon) [1] | DAI (Disease Activity Index) [1] | Rectal hemorrhage [1] | General appearance of the mice [1] | Weight change [1] | Attenuation of damage in colonic mucosa (colonic architecture) [1] | Bifidobacteria count in feces [2]
1 | CCCC(=O)OCC1OC(Oc2cc(O)cc(/C=C/c3ccc(O)cc3)c2)C(O)C(O)C1O [BUT, trans-resveratrol-3-O-(6′-O-butanoyl)-β-D-glucopyranoside] | least shortening of the colon | much less than in the remainder | no trace of rectal hemorrhage | OCT (D)≈BUT (C)>>RES≈DIGLUC≈PIC (B)>>control-DSS (A); also recorded: better appearance than the control-DSS | maintained the same weight as the control group | best preserved colonic architecture | continued the upward trend
2 | CCCCCCCC(=O)OCC1OC(Oc2cc(O)cc(/C=C/c3ccc(O)cc3)c2)C(O)C(O)C1O [OCT, trans-resveratrol-3-O-(6′-O-octanoyl)-β-D-glucopyranoside] | least shortening of the colon | much less than in the remainder | no trace of rectal hemorrhage | OCT (D)≈BUT (C)>>RES≈DIGLUC≈PIC (B)>>control-DSS (A); also recorded: better appearance than the control-DSS | maintained the same weight as the control group | best preserved colonic architecture | continued the upward trend
